Assay results taken from patent US20160237450A1, “METHOD FOR ENHANCING DROUGHT TOLERANCE IN PLANTS” (Plant Response Biotech S.L., priority 2015, published 2016).

What was measured:
[1] = TMAO accumulation in pepper leaves after spray (NMR); details: 1 g/l spray
Protocol: TMAO content in plants was determined by harvesting three leaves per treatment and freezing them in liquid nitrogen before the Nuclear Magnetic Resonance spectroscopy (NMR) determination. At least three independent plants were treated per experiment. TMAO content in plant extracts was quantified by NMR spectrometry using a Bruker Advance DRX 500 MHz spectrometer equipped with a 5 mm inverse triple resonance probe head. A known concentration of [3-(trimethylsilyl) propionic-2,2,3,3-d4 acid sod. salt, (TSP-d4)] was used as internal reference. All experiments were conducted at 298K and the data was acquired and processed using the same parameters. Spectra processing was performed on PC station using Topspin 2.0 software (Bruker).
‘Murano’ pepper seeds and ‘Bomi’ barley seeds were sown and grown as described above. Control plants (six weeks old) were sprayed with water and pepper treated plants were sprayed with 1 g/l of TMAO di-hydrate while barley plants were sprayed with 1 g/l of TMAO di-hydrate formulated with 0.1% of C8-C10 Alkylpolysaccharide. Leaves were harvested and TMAO was determined by NMR. The percentage of TMAO increase compared to untreated controls was determined for each time point.

celery plants = test: Yield production without drought stress, celery; type: in vivo; details: 1 g/l spray every 4 weeks for 3 months, no drought stress
Protocol: (§1) In order to determine the plant yield productivity under normal conditions, ‘Sabrina’, ‘Candonga’ and ‘Fortuna’ strawberry varieties, leek, lettuce, “Iceberg” variety, broccoli “Parthenon” variety, celery or kohlrabi plants, were grown under standard production conditions and 120 plants of each variety per treatment (where the treatment was a control comprising standard watering or 1 g/L of TMAO di-hydrate spray every four weeks) were analyzed. Plants were located in four (4) different positions for each group of 30 plants from the same treatment. Fruits, leaves or roots were harvested from individual plants and total weight was determined for each plant.
(§2) Root or leaves yield was determined in the plants treated with 1 g/l of TMAO di-hydrate or water as described above in order to evaluate the trade-off costs of the treatment with no drought stress.

kohlrabi plants = test: Yield production without drought stress, kohlrabi; type: in vivo; details: 1 g/l spray every 4 weeks for 3 months, no drought stress
Protocol: as §1, §2

[2] = test system: pepper plants ('Palermo'); test: Pepper fruit production, spray or constant irrigation; type: in vivo
Description: TMAO di-hydrate applied exogenously which increases the endogenous content of TMAO as if the plants were overexpressing an FMO protein at least 4 times increases pepper production per plant and pepper fruit weight under limited water irrigation and under no stress. ‘Palermo’ pepper seeds were sown, grown and treated as described above.

[3] = TMAO accumulation in barley leaves after spray (NMR); type: in vivo; details: 1 g/l spray formulated with 0.1% C8-C10 Alkylpolysaccharide, 1 day post spray
Protocol: At least three independent plants were treated per experiment.
Leaves were harvested and TMAO was determined by NMR.

corn plants ('FAO700') = test: Corn grains per cob under limited water; type: in vivo; details: 30% water
Protocol: In order to determine the drought or drought stress tolerance after seed treatments with TMAO di-hydrate and germination in the presence of TMAO di-hydrate, barley “Hispanic” seeds, corn “FAO700” seeds, and “Sambro” sunflower seeds were surface sterilized for 3 minutes in ethanol 70%, then rinsed twice and finally included in a pre-treatment solution of 1 g/L TMAO di-hydrate solution (or just water) under shaking for 3 hours at a dose of 1 litre per Kg of seeds. Then, the seeds were sown in randomized plots of 10 sqm in a surface of 2.000 sqm. Chlorophyll content was measured 1 month before harvest. In corn irrigation was applied in half of the plots while the other half only received an initial establishment watering. The barley plots received 200 l of rain per m^2 through the growing season. Some of the plots received a second spray treatment with 1 g/liter of TMAO. […] At least 3 independent plants were treated per experiment.
TMAO di-hydrate applied exogenously which increases the endogenous content of TMAO as if the plants were overexpressing an FMO protein at least 4 times increases plant production in corn under limited water irrigation. ‘FAO700’ corn seeds were sown, grown and treated as described above. Spray treatments with 1 g/L TMAO di-hydrate increased plant grain production.

[4] = test system: Arabidopsis thaliana plants (Col-0); test: Drought fitness of wild type Arabidopsis sprayed with TMAO di-hydrate; type: in vivo; details: Col-0 sprayed 1 g/L after first wilting cycle, scale 0 dead to 4 healthy
Protocol: Transgenic FMO3X and FMO8X genotypes and wild type Col-0 seeds of Arabidopsis thaliana were sown, grown and treated as described above. For the control group of both wild-type and transgenic plants, six week old plants were irrigated with 40 ml of water twice in the week, while “drought” treated plants of both wild-type and transgenic plants were not irrigated until all the plants were wilted.
After the first cycle of wilting wild type plants were sprayed with 1 g/L TMAO di-hydrate to determine if the wilted wild type plants could recover and perform as well as the transgenic plants in the following cycles of wilting. Fitness values were assigned using the following criteria: 0: Dead plant; 1: Critically damaged plant symptoms; 2: Moderate damaged plant symptoms; 3: Slightly damaged plant symptoms; and 4: Healthy plant.

[5] = 30% water, 1 g/L in every irrigation

In the case of `C[N+](C)(C)[O-].O.O` [TMAO di-hydrate, trimethylamine N-oxide di-hydrate], the “TMAO % Control” value ([1]; 1 day post spray) was 529%, the “TMAO (μM) in leaves” value ([1]; 1 day post spray) was 1755.2 µM and the “TMAO % Control” value ([1]; 10 days post spray) was 373%. For the same molecule, the “TMAO (μM) in leaves” value ([1]; 10 days post spray) was 1237.6 µM, the “TMAO % Control” value ([1]; 20 days post spray) was 286% and the “TMAO (μM) in leaves” value ([1]; 20 days post spray) was 948.9 µM. The “TMAO % Control” value ([1]; 30 days post spray) was 135%, the “TMAO (μM) in leaves” value ([1]; 30 days post spray) was 449.2 µM and the “TMAO % Control” value ([1]; 40 days post spray) was 213%. For the same molecule, the “TMAO (μM) in leaves” value ([1]; 40 days post spray) was 709.4 µM, the “Yield production, % Control” value (celery plants) was 100% and the “Yield production, % Control” value (kohlrabi plants) was 103%. The “increase in average fruit weight production per pepper plant versus 100% irrigation untreated” value [2, 5] was 13.3%, the “increase in average weight per pepper fruit versus 100% irrigation untreated” value [2, 5] was 11.9% and the “AVERAGE FRUIT WEIGHT (GRAMS) PER PEPPER PLANT” value ([2]; 30% water, 1 g/L irrigation) was 545.0 ± 36.4 GRAMS. For the same molecule, the “AVERAGE FRUIT WEIGHT (GRAMS) PER PEPPER PLANT” value ([2]; 30% water, 1 g/L spray) was 504.8 ± 46.4 GRAMS, the “AVERAGE WEIGHT (GRAMS) PER PEPPER FRUIT” value ([2]; 30% water, 1 g/L spray) was 33.5 ± 0.9 GRAMS and the “increase in average fruit weight production per pepper plant versus 100% irrigation untreated” value ([2]; 30% water, 1 g/L spray) was 4.9%. The “increase in average fruit weight production per pepper plant in the absence of stress” value ([2]; 100% water, 1 g/L in every irrigation) was 17.9%, the “AVERAGE FRUIT WEIGHT (GRAMS) PER PEPPER PLANT” value ([2]; 100% water, 1 g/L irrigation) was 567.4 ± 19.6 GRAMS and the “AVERAGE WEIGHT (GRAMS) PER PEPPER FRUIT” value ([2]; 100% water, 1 g/L irrigation) was 35.7 ± 1.3 GRAMS. For the same molecule, the “TMAO % Control” value [3] was 822%, the “TMAO (μM) in leaves” value [3] was 4633.2 µM and the “AVERAGE NUMBER OF GRAINS PER COB” value (corn plants ('FAO700'); 1 g/L seed treatment) was 542.89 ± 41.22. The “AVERAGE NUMBER OF GRAINS PER COB” value (corn plants ('FAO700'); 1 g/L spray) was 511.34 ± 19.70, the “increase in total number of grains per corn cob compared to 100% water irrigation” value (corn plants ('FAO700'); 1 g/L, row 4) was 2% and the “Mean Fitness Value ± S.E.” value [4] was 1.83 ± 0.21.
